Results: ChEMBL document CHEMBL4619803, “Stepwise Design of γ-Secretase Modulators with an Advanced Profile by Judicious Coordinated Structural Replacements and an Unconventional Phenyl Ring Bioisostere” (J Med Chem, 2020)
Values after ≈ are worked out from the molar mass of the structure shown. Values joined by “and” are separate entries in the source; they are usually repeats but may differ in a detail not shown here. Identical values can stand only once.

What was measured:
Mus musculus [1] = experiment: In vivo modulation of gamma secretase in APP-Swedish transgenic mouse assessed as reduction in Abeta42 production by measuring remaining Abeta42 level at 10 mg/kg, po measured after 4 hrs by ELISA or AlphaLISA assay relative to control; type: functional
[2] = Solubility of compound by lyophilisation solubility assay; type: physicochemical
Mus musculus [3] = experiment: In vivo modulation of gamma secretase in po dosed APP-Swedish transgenic mouse assessed as reduction in total Abeta42 production level in brain administered as single dose by ELISA or AlphaLISA assay; type: functional, organism-based; conditions: for IC50: Mus musculus
[4] = Oral bioavailability in rat at 2 mg/kg via gavage measured over 24 hrs; type: ADME, organism-based; conditions: in vivo
[5] = Fraction unbound in human plasma; type: ADME, cell-free
[6] = Oral bioavailability in minipig at 3 mg/kg via gavage measured over 240 hrs; type: ADME, organism-based, Sus scrofa domesticus; conditions: pig, in vivo
[7] = Fraction unbound in rat plasma; type: ADME, cell-free
[8] = Fraction unbound in mouse plasma; type: ADME, cell-free
[9] = Volume of distribution at steady state in rat at 1 mg/kg, iv bolus measured over 24 hrs; type: ADME, organism-based; conditions: in vivo, read-out: Vdss
[10] = Clearance in mouse hepatocytes assessed per million cells; type: ADME, cell-based, Hepatocyte; conditions: read-out: CLH
[11] = Clearance in rat at 1 mg/kg, iv bolus measured over 24 hrs; type: ADME, organism-based; conditions: in vivo
[12] = target: Voltage-gated inwardly rectifying potassium channel KCNH2 (Homo sapiens, UniProt Q12809); experiment: (§1) Inhibition of human ERG
Chain of Voltage-gated inwardly rectifying potassium channel KCNH2 (Q12809 whole entry): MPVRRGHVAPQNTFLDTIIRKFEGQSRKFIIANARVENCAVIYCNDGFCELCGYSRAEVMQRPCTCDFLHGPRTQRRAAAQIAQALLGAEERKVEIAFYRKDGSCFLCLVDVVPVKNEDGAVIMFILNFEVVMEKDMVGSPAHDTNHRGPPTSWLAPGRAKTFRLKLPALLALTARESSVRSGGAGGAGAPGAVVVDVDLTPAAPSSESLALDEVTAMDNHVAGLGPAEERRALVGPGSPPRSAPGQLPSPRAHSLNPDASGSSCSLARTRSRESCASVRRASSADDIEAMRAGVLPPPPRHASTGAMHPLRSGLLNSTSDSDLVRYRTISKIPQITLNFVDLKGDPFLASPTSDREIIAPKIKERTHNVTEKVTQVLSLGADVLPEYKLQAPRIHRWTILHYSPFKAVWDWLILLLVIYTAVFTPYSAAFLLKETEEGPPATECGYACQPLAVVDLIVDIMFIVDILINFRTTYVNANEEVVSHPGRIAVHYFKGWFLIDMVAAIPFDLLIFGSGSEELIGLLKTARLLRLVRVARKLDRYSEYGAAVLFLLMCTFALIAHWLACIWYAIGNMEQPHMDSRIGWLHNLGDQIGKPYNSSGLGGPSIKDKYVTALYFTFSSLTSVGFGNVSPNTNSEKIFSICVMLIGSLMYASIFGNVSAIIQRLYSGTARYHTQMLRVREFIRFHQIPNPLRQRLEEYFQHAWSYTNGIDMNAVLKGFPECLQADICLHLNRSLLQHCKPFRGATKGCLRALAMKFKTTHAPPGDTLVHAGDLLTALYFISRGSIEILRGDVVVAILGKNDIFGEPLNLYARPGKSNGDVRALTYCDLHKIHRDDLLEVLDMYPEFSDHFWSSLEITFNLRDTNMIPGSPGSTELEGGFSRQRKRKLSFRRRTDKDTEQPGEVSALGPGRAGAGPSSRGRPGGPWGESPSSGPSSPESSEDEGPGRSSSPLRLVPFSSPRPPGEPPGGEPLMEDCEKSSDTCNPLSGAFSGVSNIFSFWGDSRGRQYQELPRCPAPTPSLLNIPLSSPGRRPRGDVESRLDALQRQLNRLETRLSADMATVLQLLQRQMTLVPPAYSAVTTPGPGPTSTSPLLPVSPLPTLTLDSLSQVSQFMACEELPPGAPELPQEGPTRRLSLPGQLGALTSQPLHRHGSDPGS

hERG (KCNH2) = hERG (KCNH2) (Homo sapiens, UniProt Q12809); experiment: as §1; conditions: human
Chain of hERG (KCNH2) (Q12809 whole entry): as above

[13] = Terminal half life in minipig at 1 mg/kg, iv bolus measured over 240 hrs; type: ADME, organism-based, Sus scrofa domesticus; conditions: pig, in vivo, read-out: beta t1/2 (converted)
[14] = Octanol/water distribution co-efficient, log D of the compound at pH 7.4; type: physicochemical
[15] = Solubility in fed state simulated intestinal fluids; type: physicochemical; conditions: simulated gi fluid
[16] = Thermodynamic solubility of the compound; type: physicochemical
[17] = Mutagenicity in Salmonella typhimurium by Ames test; type: toxicity; conditions: salmonella enterica subsp. enterica serovar typhimurium
[18] = Volume of distribution at steady state in minipig at 1 mg/kg, iv bolus measured over 240 hrs; type: ADME, organism-based, Sus scrofa domesticus; conditions: pig, in vivo, read-out: Vdss
[19] = Clearance in rat hepatocytes assessed per million cell; type: ADME, cell-based, Hepatocyte; conditions: read-out: CLH
Keratinocyte = experiment: Phototoxicity in human Keratinocytes in presence of UVA at 320 to 400 nm; type: cell-based; conditions: light or radiation study
[20] = Solubility of the compound in fasted state simulated intestinal fluid; type: physicochemical; conditions: simulated gi fluid
Gamma-secretase = experiment: (§2) Modulation of gamma secretase in human H4 cells over expressing human APP695 harboring K595N/M596L Swedish double mutant assessed as reduction in Abeta42 production after 24 hrs by Alphalisa assay; type: cell-based
[21] = target: Gamma-secretase (Homo sapiens) (UniProt Q96BI3+Q9NZ42+Q8WW43+P49768+Q92542+P49810); experiment: as §2; type: cell-based
[22] = Dose normalized AUC (infinity) in rat at 2 mg/kg, po via gavage measured over 24 hrs; type: ADME, organism-based; conditions: in vivo
Melanocyte = experiment: Phototoxicity in human Melanocytes in presence of UVA at 320 to 400 nm; type: cell-based; conditions: light or radiation study
[23] = Cytotoxicity against human embryonic stem cells assessed as reduction in cell viability; type: cell-based
Mus musculus [24] = species: Mus musculus; experiment: (§3) Modulation of mouse gamma secretase assessed as reduction in Abeta42 production
[25] = as §3
[26] = Clearance in minipig at 1 mg/kg, iv bolus measured over 240 hrs; type: ADME, organism-based, Sus scrofa domesticus; conditions: pig, in vivo
[27] = Terminal half life in rat at 1 mg/kg, iv bolus measured over 24 hrs; type: ADME, organism-based; conditions: in vivo, read-out: beta t1/2 (converted)
[28] = target: Phosphatidylinositol 4-kinase beta (Homo sapiens, UniProt Q9UBF8); experiment: Binding affinity to PIK4CB (unknown origin); type: ADME
Chain of Phosphatidylinositol 4-kinase beta (Q9UBF8 whole entry): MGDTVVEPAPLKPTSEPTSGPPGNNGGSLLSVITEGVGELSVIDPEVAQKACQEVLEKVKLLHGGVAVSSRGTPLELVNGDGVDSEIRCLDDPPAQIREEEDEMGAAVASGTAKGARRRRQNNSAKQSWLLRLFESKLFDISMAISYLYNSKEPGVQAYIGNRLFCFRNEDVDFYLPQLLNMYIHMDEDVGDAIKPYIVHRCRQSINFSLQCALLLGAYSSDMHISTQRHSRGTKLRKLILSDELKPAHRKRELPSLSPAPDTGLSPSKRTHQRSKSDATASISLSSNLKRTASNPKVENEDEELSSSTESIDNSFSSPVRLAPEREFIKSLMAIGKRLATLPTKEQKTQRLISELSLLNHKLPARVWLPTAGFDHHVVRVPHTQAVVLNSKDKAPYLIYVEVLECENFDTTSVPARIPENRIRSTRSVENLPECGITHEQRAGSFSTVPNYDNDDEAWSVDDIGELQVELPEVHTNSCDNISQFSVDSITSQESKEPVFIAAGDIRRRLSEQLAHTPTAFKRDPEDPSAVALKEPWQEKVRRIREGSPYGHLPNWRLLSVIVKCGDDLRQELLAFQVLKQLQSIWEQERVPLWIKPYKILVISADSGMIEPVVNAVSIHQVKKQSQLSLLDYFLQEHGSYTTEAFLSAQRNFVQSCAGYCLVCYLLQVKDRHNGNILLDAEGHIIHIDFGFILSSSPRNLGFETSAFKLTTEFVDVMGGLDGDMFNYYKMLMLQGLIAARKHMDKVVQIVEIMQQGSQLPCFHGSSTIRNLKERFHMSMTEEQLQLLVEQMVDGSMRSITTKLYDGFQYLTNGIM

[29] = Clearance in human hepatocytes assessed per million cells; type: ADME, cell-based, Hepatocyte; conditions: read-out: CLH
[30] = Dose normalized AUC (infinity) in minipig at 3 mg/kg, po via gavage measured over 240 hrs; type: ADME, organism-based, Sus scrofa domesticus; conditions: pig, in vivo
[31] = Ratio of IC50 for dark toxicity in human Melanocytes to IC50 for phototoxicity in human Melanocytes in presence of UVA at 320 to 400 nm; type: cell-based, Melanocyte; conditions: read-out: Ratio IC50
[32] = Fraction unbound in 10% fetal calf serum; type: ADME, cell-free, Bos taurus; conditions: cattle
[33] = Dark toxicity in human Keratinocytes assessed as reduction in cell viability; type: cell-based, Keratinocyte
[34] = Ratio of IC50 for dark toxicity in human Keratinocytes to IC50 for phototoxicity in human Keratinocytes in presence of UVA at 320 to 400 nm; type: cell-based, Keratinocyte; conditions: read-out: Ratio IC50
Mus musculus [35] = experiment: In vivo modulation of gamma secretase in APP-Swedish transgenic mouse assessed as reduction in Abeta42 production by measuring remaining Abeta42 level at 0.3 mg/kg, po measured after 4 hrs by ELISA or AlphaLISA assay relative to control; type: functional
Mus musculus [36] = experiment: In vivo modulation of gamma secretase in APP-Swedish transgenic mouse assessed as reduction in Abeta42 production by measuring remaining Abeta42 level at 1 mg/kg, po measured after 4 hrs by ELISA or AlphaLISA assay relative to control; type: functional
Mus musculus [37] = experiment: In vivo modulation of gamma secretase in APP-Swedish transgenic mouse assessed as reduction in Abeta42 production by measuring remaining Abeta42 level at 3 mg/kg, po measured after 4 hrs by ELISA or AlphaLISA assay relative to control; type: functional
[38] = Covalent protein binding in human liver microsomes assessed per mg protein in presence of NADPH; type: ADME, Microsome
[39] = Dark toxicity in human Melanocytes assessed as reduction in cell viability; type: cell-based, Melanocyte
Mus musculus [40] = experiment: In vivo modulation of gamma secretase in APP-Swedish transgenic mouse assessed as reduction in Abeta42 production by measuring remaining Abeta42 level at 30 mg/kg, po measured after 4 hrs by ELISA or AlphaLISA assay relative to control; type: functional

Row | solubility [2] | IC50 (Mus musculus [3]) | fraction unbound [5] | fraction unbound [7] | fraction unbound [8] | hepatocyte CLint [10] | logD [14] | IC50 (Gamma-secretase) | fIC50 [21] | fIC50 (Mus musculus [24]) | IC50 [25] | Kd [28] | hepatocyte CLint [29] | PB [38] | Structure (SMILES) | remaining Abeta42 level (% of control) (Mus musculus [1]) | IC50 [12] | IC20 (hERG (KCNH2)) | IC50 (Keratinocyte) | IC50 (Melanocyte) | remaining Abeta42 level (% of control) (Mus musculus [37]) | further results
1 | – | – | – | – | – | – | – | – | – | – | – | – | – | – | O=S(=O)(N[C@H]1CC[C@@](c2cc(F)ccc2F)(S(=O)(=O)c2ccc(Cl)cc2)CC1)C(F)(F)F | 24 - 28% | – | – | – | – | – | –
2 | 82 µg/mL (≈ 162 µM) | 0.04 µM | 0.05 | 0.059 | 0.043 | 3.4 µL/min/1e6 cells | 3.8 to 3.85 | 0.03 µM | 19 nM | 14 nM | 0.021 µM | > 40 µM | 1.1 µL/min/1e6 cells | – | Cc1nnc(N2C[C@H]3CC[C@@H](C2)[C@@H]3Nc2nc3c(O[C@@H](C)C(F)(F)F)ccc(C(F)(F)F)n3n2)o1 | – | > 20 µM | 5.4 µM | 25 µM | 25 µM | – | bioavailability [4]: 33%; bioavailability [6]: 27%; Vd [9]: 2.2 L/kg; clearance [11]: 3.8 mL/min/kg; half-life [13]: 6.7 h; solubility [15]: 390 µg/mL (≈ 772 µM); Therm solubility [16]: 85 µg/mL; Activity [17]: Non-Toxic; Vd [18]: 0.83 L/kg; hepatocyte CLint [19]: 6.3 µL/min/1e6 cells; solubility [20]: 234 µg/mL (≈ 463 µM); AUC/dose [22]: 1748 kg·ng·h/mL/mg; Activity [23]: Non-Toxic; clearance [26]: 3.35 mL/min/kg; half-life [27]: 8.1 h; AUC/dose [30]: 1383 kg·ng·h/mL/mg
3 | 3.8 to 3.86 µg/mL (≈ 8.06 to 8.19 µM) | 0.16 µM | 0.004 | – | 0.003 | 5.4 µL/min/1e6 cells | 4.1 to 4.14 | 0.0045 µM | 1 nM | 0.9 nM | 0.004 µM | 0.12 µM | 6.6 µL/min/1e6 cells | 105 pmol | Cc1nsc(N2CC3CCC(C2)C3Nc2nc3c(-c4ccc(F)c(F)c4F)cccn3n2)n1 (centres undefined) | 22% | < 2 µM | < 1 µM | 1.67 µM | 1.67 µM | 27% | fIC50 (Mus musculus [3]): 0.5 nM; selectivity ratio [31]: 22.9 to 23; fraction unbound [32]: 0.22; IC50 [33]: > 38 µM; selectivity ratio [34]: 22.9 to 23; Activity (Mus musculus [35]): 75%; Activity (Mus musculus [36]): 56%; IC50 [39]: > 38 µM
4 | 88 µg/mL (≈ 182 µM) | – | 0.028 | 0.01 | 0.017 | 9.4 µL/min/1e6 cells | 3.9 | 0.021 µM | 12 nM | 7 nM | 0.011 µM | 23 µM | 2.3 µL/min/1e6 cells | – | Cc1cc(N2C[C@H]3CC[C@@H](C2)[C@@H]3Nc2nc3c(OCC(F)F)ccc(C(F)(F)F)n3n2)ncn1 | – | 4.5 µM | 1.4 µM | 31 µM | 31 µM | – | solubility [15]: 466 µg/mL (≈ 964 µM); Therm solubility [16]: 3 µg/mL; Activity [17]: Non-Toxic; hepatocyte CLint [19]: 5.8 µL/min/1e6 cells; solubility [20]: 13 µg/mL (≈ 26.9 µM); Activity [23]: Non-Toxic
5 | 55 µg/mL (≈ 112 µM) | – | 0.017 | 0.046 | 0.031 | 8.5 µL/min/1e6 cells | 3.79 | 0.033 µM | 21 nM | – | 0.02 µM and 0.012 µM | > 40 µM | 1 µL/min/1e6 cells | – | Cc1noc(N2C[C@H]3CC[C@@H](C2)[C@@H]3Nc2nc3c(OCC(F)(F)F)ccc(C(F)(F)F)n3n2)n1 | – | 8.75 µM | 3.5 µM | 33 µM | 33 µM | – | solubility [15]: 92 µg/mL (≈ 187 µM); Therm solubility [16]: 5 µg/mL; Activity [17]: Non-Toxic; hepatocyte CLint [19]: 6.9 µL/min/1e6 cells; solubility [20]: 12 µg/mL (≈ 24.4 µM); Activity [23]: Non-Toxic
6 | 198 µg/mL (≈ 451 µM) | – | 0.028 | – | 0.06 to 0.101 | 4 to 6.4 µL/min/1e6 cells | 3.17 | 0.021 µM | 12 nM | 5 nM | 0.009 µM | 0.15 µM | 1.3 µL/min/1e6 cells | 30 pmol | Cc1nsc(N2C[C@H]3CC[C@@H](C2)[C@@H]3Nc2nc3c(OCC(F)(F)F)cccn3n2)n1 | 15% | > 10 µM | 4.5 µM | 443 µM | 443 µM | 33% | selectivity ratio [31]: 1.1; selectivity ratio [34]: 1.1; Activity (Mus musculus [36]): 59%
7 | 31 µg/mL (≈ 70.7 µM) | – | 0.017 | – | 0.018 | 15 µL/min/1e6 cells | 3.9 to 3.99 | 0.004 µM | 3 nM | 3 nM | 0.004 µM | 0.12 µM | 3.3 µL/min/1e6 cells | 96 pmol | Cc1cc(N2C[C@H]3CC[C@@H](C2)[C@@H]3Nc2nc3c(OCC(F)(F)F)cccn3n2)sn1 | >50% | 2.9 µM | 0.9 µM | > 137 µM | > 137 µM | >=47 - 50% | selectivity ratio [31]: 1; selectivity ratio [34]: 1; Activity (Mus musculus [36]): 75%
8 | – | 2.87 µM | 0.0003 | – | 0.0029 | – | – | 0.055 µM | 3.3 nM | 2.3 nM | 0.038 µM | – | – | 149 pmol | Cc1nsc(N2CC[C@@H](Nc3nc4c(-c5ccc(F)c(F)c5F)cccn4n3)C(F)(F)C2)n1 | 46% | – | – | – | – | 64% | fIC50 (Mus musculus [3]): 8 nM; fraction unbound [32]: 0.06; Activity (Mus musculus [40]): 31%
